Structures can show the parent of a compound that is named as a salt.
What follows are molecules tested on Diet Induced Obese (DIO) C57BL/6 mice (assay: 10 day DIO mouse model (body weight, food intake, hematology, blood chemistry)). Conditions: 240 h; DIO mouse, 0.3 mpk sc, once a day for 10 days; read-out: DIO Mouse 10-day weight loss vs vehicle.
Format: in vivo
Text: The objective of this study design was to investigate the efficacy of disclosed compounds in a 10 day DIO mouse model. Effects on body weight, food intake, hematology and blood chemistry were the primary readouts of this study design. […] Mice were fed Research Diets D12492 (60% Kcal fat, 20% Kcal carbohydrate and 20% protein) and provided water ad libitum. DIO mice were received and housed in the facility for approximately two weeks prior to the start of test article administration. On Day −4 or −3, mice were randomized into study groups based on body weight and body weights were continued to be recorded daily for the duration of the study. Daily food intake was assessed starting on Study Day −2 by weighing of the food with hopper together to avoid loss of food in transfer.
Compounds were formulated into a 100% DMSO stock (at 9 mg/mL) prior to the start, and further diluted into the target working concentration using the vehicle of 10% DMSO in water. Prior to test article administration, starting on Day −3 a dosing acclimation occured with all animals receiving a subcutaneous injection of vehicle (10% DMSO) only for 3 days. Starting on Day 1, test compounds or vehicle were administered based on individual body weight, subcutaneously, once a day for 10 days. All mice were sacrificed on Day 11, 24 hours following the final dosing on Day 10. After sacrifice, whole blood was collected and analyzed for hematology and blood chemistry parameters.
Compounds were tested vs. vehicle at various doses (1.0, 0.5, 0.3, 0.1, 0.03 mpk sc (mg per kg animal weight delivered subcutaneously), and the results are shown in Table 2 below.

With `CO[C@@H]1[C@H](OC(=O)N2CC(CCN3CCCC3)C2)CC[C@]2(CO2)[C@H]1[C@@]1(C)O[C@@H]1CC=C(C)C` [Example 3, (3R,4S,5S,6R)-5-methoxy-4-((2R,3R)-2-methyl-3-(3-methylbut-2-enyl)oxiran-2-yl)-1-oxaspiro[2.5]octan-6-yl 3-(2-(pyrrolidin-1-yl)ethyl)azetidine-1-carboxylate formate] as the molecule, how does the inhibition in vivo at 0.3 mg/kg read?
The inhibition in vivo at 0.3 mg/kg was 5.9%.

With `CO[C@@H]1[C@H](OC(=O)N2CC(CCN3CCS(=O)(=O)CC3)C2)CC[C@]2(CO2)[C@H]1[C@@]1(C)O[C@@H]1CC=C(C)C` [Example 10, (3R,4S,5S,6R)-5-methoxy-4-((2R,3R)-2-methyl-3-(3-methylbut-2-enyl)oxiran-2-yl)-1-oxaspiro[2.5]octan-6-yl 3-(2-thiomorpholinoethyl)azetidine 2,2-dioxide-1-carboxylate] as the molecule, how does the inhibition in vivo at 0.3 mg/kg read?
Its inhibition in vivo at 0.3 mg/kg is 1.8%.

For `CO[C@@H]1[C@H](OC(=O)N2CC(CCN3CCN(C)C(=O)C3)C2)CC[C@]2(CO2)[C@H]1[C@@]1(C)O[C@@H]1CC=C(C)C` [Example 11, (3R,4S,5S,6R)-5-methoxy-4-((2R,3R)-2-methyl-3-(3-methylbut-2-enyl)oxiran-2-yl)-1-oxaspiro[2.5]octan-6-yl 3-(2-(4-methyl-3-oxopiperazin-1-yl)ethyl)azetidine-1-carboxylate formate], which inhibition in vivo at 0.3 mg/kg is on record?
The inhibition in vivo at 0.3 mg/kg was 2%.

Which inhibition in vivo at 0.3 mg/kg does the source give for `CO[C@@H]1[C@H](OC(=O)N2CC(CCN3CCNC(=O)C3)C2)CC[C@]2(CO2)[C@H]1[C@@]1(C)O[C@@H]1CC=C(C)C` [Example 12, (3R,4S,5S,6R)-5-methoxy-4-((2R,3R)-2-methyl-3-(3-methylbut-2-enyl)oxiran-2-yl)-1-oxaspiro[2.5]octan-6-yl 3-(2-(3-oxopiperazin-1-yl)ethyl)azetidine-1-carboxylate] here?
Its inhibition in vivo at 0.3 mg/kg is 1.1%.

`CO[C@@H]1[C@H](OC(=O)N2CC(CCN3CCC(F)(F)CC3)C2)CC[C@]2(CO2)[C@H]1[C@@]1(C)O[C@@H]1CC=C(C)C` [Example 13, (3R,4S,5S,6R)-5-methoxy-4-((2R,3R)-2-methyl-3-(3-methylbut-2-enyl)oxiran-2-yl)-1-oxaspiro[2.5]octan-6-yl 3-(2-(4,4-difluoropiperidin-1-yl)ethyl)azetidine-1-carboxylate] was tested. Which inhibition in vivo at 0.3 mg/kg did it give?
Its inhibition in vivo at 0.3 mg/kg is 18.2%.

How did the inhibition in vivo at 0.3 mg/kg turn out when `CO[C@@H]1[C@H](OC(=O)N2CC(CCN3CC(C)(C#N)C3)C2)CC[C@]2(CO2)[C@H]1[C@@]1(C)O[C@@H]1CC=C(C)C` [Example 14, (3R,4S,5S,6R)-5-methoxy-4-((2R,3R)-2-methyl-3-(3-methylbut-2-enyl)oxiran-2-yl)-1-oxaspiro[2.5]octan-6-yl 3-(2-(3-cyano-3-methylazetidin-1-yl)ethyl)azetidine-1-carboxylate] was run?
The inhibition in vivo at 0.3 mg/kg was 12.5%.

For `CO[C@@H]1[C@H](OC(=O)N2CC(CCN3CCN(S(C)(=O)=O)CC3)C2)CC[C@]2(CO2)[C@H]1[C@@]1(C)O[C@@H]1CC=C(C)C` [Example 15, (3R,4S,5S,6R)-5-methoxy-4-((2R,3R)-2-methyl-3-(3-methylbut-2-enyl)oxiran-2-yl)-1-oxaspiro[2.5]octan-6-yl 3-(2-(4-(methylsulfonyl)piperazin-1-yl)ethyl)azetidine-1-carboxylate], which inhibition in vivo at 0.3 mg/kg is on record?
The inhibition in vivo at 0.3 mg/kg was 0.1%.

How did the inhibition in vivo at 0.3 mg/kg turn out when `CO[C@@H]1[C@H](OC(=O)N2CC(CCn3ccnc3)C2)CC[C@]2(CO2)[C@H]1[C@@]1(C)O[C@@H]1CC=C(C)C` [Example 18, (3R,4S,5S,6R)-5-methoxy-4-((2R,3R)-2-methyl-3-(3-methylbut-2-enyl)oxiran-2-yl)-1-oxaspiro[2.5]octan-6-yl 3-(2-(1H-imidazol-1-yl)ethyl)azetidine-1-carboxylate] was run?
Its inhibition in vivo at 0.3 mg/kg is 3%.

Which inhibition in vivo at 0.3 mg/kg does the source give for `CO[C@@H]1[C@H](OC(=O)N2CC(CCN3CC(C(=O)N(C)C)C3)C2)CC[C@]2(CO2)[C@H]1[C@@]1(C)O[C@@H]1CC=C(C)C` [Example 19, (3R,4S,5S,6R)-5-methoxy-4-((2R,3R)-2-methyl-3-(3-methylbut-2-enyl)oxiran-2-yl)-1-oxaspiro[2.5]octan-6-yl 3-(2-(3-(dimethylcarbamoyl)azetidin-1-yl)ethyl)azetidine-1-carboxylate] here?
The inhibition in vivo at 0.3 mg/kg was 6.7%.
